Each block holds one compound with its values, some of them ahead of it.
What was measured:
Assay type in all cases: biochemical
[1] = test system: Catalase; assay: Catalase based test, liquid system, wound fluid; conditions: room temperature, 30 minutes
Procedure: For this diagnostic tool: Purpald as substrate for Catalase was used. Purpalt is dissolved in water (50-100 mM). 200 µl of substrate solution are pipetted into a microtiterplate.
(§1) This mixture is incubated at room temperature for 30 minutes.

[2] = test system: Catalase; assay: Catalase based test, liquid system, sputum; conditions: room temperature, 30 minutes
Procedure: For this diagnostic tool: Purpald as substrate for catalase was used. Purpalt is dissolved in water (50-100 mM?). 200 µl of substrate solution are pipetted into a microtiterplate.
as §1

[3] = test system: Phospholipase A2; assay: Phospholipase A2 based test, liquid system, wound fluid; conditions: room temperature, 30 minutes
Procedure: Preparation of diagnostic system. For this diagnostic tool, 4-Nitro-3- octanoylbenzoic acid as Phospholipase A2 - substrate was used. 4-Nitro-3-octanoylbenzoic acid (1.7 mM) is dissolved in assay buffer containing 50 mM Tris/HCl buffer pH 7.2, 150 mM KCL and 10 mM CaC12. 190 µl of the buffer are pipetted into a microtiterplate.
as §1

[4] = test system: Phospholipase A2; assay: Phospholipase A2 based test, liquid system, sputum; conditions: room temperature, 30 minutes
Procedure: For this diagnostic tool, 4-Nitro-3-octanoylbenzoic acid as Phospholipase A2 - substrate was used. 4-Nitro-3-octanoylbenzoic acid (1.7 mM) is dissolved in assay buffer containing 50 mM Tris/HCl buffer pH 7.2, 150 mM KCL and 10 mM CaC12. 190 µl of the buffer are pipetted into a microtiterplate.
as §1

[5] = biological target: T1, Myeloperoxidase (Homo sapiens, UniProt P05164); assay: Myeloperoxidase based test, cellulose based system, sputum; conditions: filter paper discs, H202, 5 minutes
T1 sequence (P05164 49-745): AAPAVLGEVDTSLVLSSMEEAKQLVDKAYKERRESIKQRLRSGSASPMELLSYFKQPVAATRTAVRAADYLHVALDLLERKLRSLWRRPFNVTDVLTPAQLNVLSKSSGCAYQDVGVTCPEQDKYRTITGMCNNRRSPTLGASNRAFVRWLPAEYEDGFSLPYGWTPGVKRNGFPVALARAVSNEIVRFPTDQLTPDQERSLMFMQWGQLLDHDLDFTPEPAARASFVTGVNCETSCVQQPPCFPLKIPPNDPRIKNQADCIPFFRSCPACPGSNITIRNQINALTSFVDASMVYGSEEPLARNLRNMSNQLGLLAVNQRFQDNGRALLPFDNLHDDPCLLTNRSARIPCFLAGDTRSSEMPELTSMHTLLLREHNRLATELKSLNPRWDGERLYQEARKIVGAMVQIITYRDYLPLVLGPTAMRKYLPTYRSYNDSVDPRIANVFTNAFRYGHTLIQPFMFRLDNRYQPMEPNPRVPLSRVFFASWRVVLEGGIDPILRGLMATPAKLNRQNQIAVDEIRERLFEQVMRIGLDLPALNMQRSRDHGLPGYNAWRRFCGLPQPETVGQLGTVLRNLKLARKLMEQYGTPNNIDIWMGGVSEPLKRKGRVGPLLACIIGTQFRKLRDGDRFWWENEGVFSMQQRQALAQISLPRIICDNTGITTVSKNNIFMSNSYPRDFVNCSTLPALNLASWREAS
Procedure: 1.5 µl of H202 (50 mM) and 1.5 µl of the substrates (109 mM ABTS, 454 mM TMB, 230 mM Fast Blue, x mM Guaiacol, x mM 4-Amino-3-methoxy benzoic acid) were incubated on small Whatmann Filterpaper discs.

[6] = biological target: T1, Myeloperoxidase; assay: Myeloperoxidase based test, liquid system, sputum; conditions: succinate buffer pH 5.4, H202, 5 minutes
[7] = biological target: T2, MPO (Homo sapiens, UniProt P05164); assay: Colorimetric enzyme assay for detection of myeloperoxidase activity; conditions: 1 mg/mL, pH 6.4, 5 mM H2O2
T2 sequence (P05164 49-745): T1 sequence (P05164 49-745)

[8] = test system: Phospholipase C; assay: Phospholipase C based test, liquid system, wound fluid; conditions: room temperature, 30 minutes, visual inspection
Procedure: For this diagnostic tool, p-Nitrophenylphosphorylcholine as substrate for Phospholipase C was used. p-Mtrophenylphosphorylcholine is dissolved in water (50-100 mM). A 250 mM: Tris/HCi buffer with 70% Sorbitol pH 7.2 was used as assay buffer. 230 µl of the buffer and 100 µl of the substrate are pipetted into a microtiterplate.
as §1

[9] = infected wound fluid samples A, B, C
[10] = non infected wound fluid samples D, E, F
[11] = infected sputum samples A, B, C
[12] = non infected sputum samples D, E, F

Compound: NNc1n[nH]c(=S)n1N [Purpald]
Test response [1, 9]: yellow
Test response [1, 10]: No colour change
Test response [2, 11]: yellow
Test response ([2]; non-infected sputum samples D, E, F): No colour change

Compound: CCCCCCCC(=O)c1cc(C(=O)O)ccc1[N+](=O)[O-] [4-Nitro-3-octanoylbenzoic acid]
Test response [3, 9]: yellow
Test response [3, 10]: No colour change
Test response [4, 11]: yellow
Test response [4, 12]: No colour change

Test response ([5]; infected sputum samples A, B): brown
Test response ([5]; non infected sputum samples C, D): No colour change
Compound: COc1cc(C(=O)O)ccc1N [Compound 4A3Mba, 4-Amino-3-methoxy benzoic acid]

Compound: Cc1cc(-c2cc(C)c(N)c(C)c2)cc(C)c1N [TMB, 3, 3′, 5, 5′ -Tetramethylbenzidine]
Test response [6, 11]: blue
Test response [6, 12]: No colour change

colour of solution upon MPO oxidation [7]: turned brownish
Compound: Nc1ccc(C(=O)O)cc1N [3,4-Diamino benzoic acid]

Compound: C[N+](C)(C)CCOP(=O)([O-])Oc1ccc([N+](=O)[O-])cc1 [p-Nitrophenylphosphorylcholine]
Test response [8, 9]: yellow
Test response ([8]; non-infected wound fluid samples D, E, F): No colour change

From patent publication US20230213525A1, “DETECTING MICROBIAL INFECTION IN WOUNDS” (QUALIZYME DIAGNOSTICS GMBH & CO KG, priority 2016, published 2023)
